Eleven compounds from ChEMBL document CHEMBL2028040, “Malaria Box” can be followed below.

Bounds are passed on as bounds.

The subject of data set [1] is Plasmodium falciparum. In words: MMV: Inhibition of Plasmodium falciparum 3D7 at 5uM compound concentration. It counts as functional.
The test system of data set [2] is Plasmodium falciparum. In words: MMV: Inhibition of Plasmodium falciparum 3D7 (EC50). It is filed as functional, organism-based.
Data set [3] has as its system Plasmodium falciparum. Briefly: MMV: Inhibition of Plasmodium falciparum K1 (EC50). It is filed as functional, organism-based.
A further data set has as its system Trypanosoma cruzi. Briefly: MMV: Inhibition of Trypanosoma cruzi (Tulahuen C4 LacZ) (Chagas in vitro). It is filed as functional, organism-based.
Data set [4] relates to Trypanosoma brucei brucei. Briefly: MMV: Inhibition of Trypanosoma brucei brucei (Squib 427) (HAT in vitro). It counts as functional, organism-based.
The test system of data set [5] is Trypanosoma brucei rhodesiense. Briefly: MMV: Inhibition of Trypanosoma brucei rhodesiense (STIB 900) (HAT in vitro). It is filed as functional, organism-based.
The subject of the next data set is Leishmania infantum. Briefly: MMV: Inhibition of Leishmania infantum (MHOM/MA/BE/67) in vitro. It counts as functional, organism-based.
The nature of data set [6]: MMV: Cytotoxicity against human fibroblasts (MRC-5) cells. The note with it: MRC-5 cells (human fibroblasts).

In the case of `CN1CCN(c2ccc(Nc3c4ccccc4nc4ccccc34)cc2)CC1`, at 5 µM the inhibition with Plasmodium falciparum [1] was 97%. For the same compound, the concentration giving a half-maximal response (EC50) (commonly the midpoint of the concentration-response curve) in the data set on Plasmodium falciparum [2] was 142 nM; with Plasmodium falciparum [3] it was 487 nM. The IC50 (as a rule, the concentration that gives 50% inhibition) in the data set with Trypanosoma cruzi was determined as 1000 nM; in data set [4] it was 1030 nM; in data set [5], 311 nM; with Leishmania infantum, 4060 nM; in data set [6], 10900 nM.
Regarding `Cc1cc(NCCN2CCCCC2)c2ccc3ccccc3c2n1`, the inhibition (usually the change of the read-out against control, counted positive when it falls) at 5 µM with Plasmodium falciparum [1] turned out to be 99%. For the same compound, the half-maximal effective concentration (EC50) with Plasmodium falciparum [2] stood at 300 nM; in the data set on Plasmodium falciparum [3], 569 nM. The IC50 in the data set with Trypanosoma cruzi worked out at 3270 nM; in data set [4] it was 970 nM; in data set [5], 1000 nM; in the data set on Leishmania infantum it was 841 nM; in data set [6], 16100 nM.
The compound `CCc1c(C)c(=N)c2ccccc2n1C` had an inhibition at 5 µM with Plasmodium falciparum [1] of 76%. The EC50 with Plasmodium falciparum [2] came out at 378 nM; in the data set on Plasmodium falciparum [3] it was 994 nM. In addition, the half-inhibitory concentration (IC50) in the data set with Trypanosoma cruzi was 3060 nM; in data set [4], over 32000 nM; in data set [5], over 32000 nM; in the data set with Leishmania infantum, over 32000 nM; in data set [6], 6890 nM.
In the case of `CN(C)c1ccc(C=Cc2nc(=O)c3ccccc3o2)cc1`, in the data set on Plasmodium falciparum [1], at 5 µM the inhibition was 96%. Besides, the 50% effective concentration (EC50) in the data set with Plasmodium falciparum [2] was 51.5 nM; in the data set on Plasmodium falciparum [3], 27.2 nM. Moreover, the 50% inhibitory concentration (IC50) was over 32000 nM with Trypanosoma cruzi; over 32000 nM in data set [4]; 3060 nM in data set [5]; over 32000 nM in the data set with Leishmania infantum; over 32000 nM in data set [6].
In the data set with Plasmodium falciparum [1], `COc1cc(OC)c(N(C)C(=O)c2cc3c(s2)-c2ccccc2S(=O)(=O)C3)cc1Cl` yielded an inhibition at 5 µM of 100%. Moreover, the concentration giving a half-maximal response (EC50) in the data set on Plasmodium falciparum [2] was 78.2 nM; in the data set with Plasmodium falciparum [3], 93.6 nM. In addition, the IC50 in the data set with Trypanosoma cruzi was 15700 nM; in data set [4], 16200 nM; in data set [5], 4360 nM; in the data set on Leishmania infantum it was 21500 nM; in data set [6], over 32000 nM.
Consider `CCOC(=O)c1cnc2c(C)cccc2c1Nc1ccc(C(C)=O)cc1`, for which the inhibition at 5 µM in the data set with Plasmodium falciparum [1] was 94%. Besides, the values for the EC50 in the data set with Plasmodium falciparum [2] and in the data set on Plasmodium falciparum [3] were 314 nM and 712 nM, respectively. Also, the half-inhibitory concentration (IC50) (with Trypanosoma cruzi; in data set [4]; in data set [5]; in the data set with Leishmania infantum; in data set [6]) was over 32000 nM throughout.
As to `Cc1cc(NC(=O)C2c3ccccc3C(=O)N(CC(C)C)C2c2cccs2)no1` (stereo not drawn), the inhibition at 5 µM in the data set with Plasmodium falciparum [1] came out at 100%. Further, the EC50 with Plasmodium falciparum [2] was 32.8 nM; in the data set on Plasmodium falciparum [3] it was 39.1 nM. The IC50 with Trypanosoma cruzi is 15100 nM; in data set [4], over 32000 nM; in data set [5] it was 9830 nM; in the data set with Leishmania infantum, over 32000 nM; in data set [6], 30100 nM.
`CC(C)c1ccc(CNCC(O)c2ccccc2)cc1` (stereo not drawn) came in with an inhibition at 5 µM with Plasmodium falciparum [1] of 96%. For the same compound, the EC50 with Plasmodium falciparum [2] stood at 1260 nM; in the data set with Plasmodium falciparum [3], 456 nM. In addition, the IC50 with Trypanosoma cruzi worked out at 10600 nM; in data set [4] it was 1000 nM; in data set [5] it was 1010 nM; in the data set on Leishmania infantum, 10200 nM; in data set [6] it was 13000 nM.
As for `OC(CNC1CCCC1)Cn1c2ccccc2c2ccccc21` (stereo not drawn), in the data set with Plasmodium falciparum [1], the inhibition at 5 µM turned out to be 97%. Moreover, the EC50 in the data set on Plasmodium falciparum [2] turned out to be 660 nM; in the data set on Plasmodium falciparum [3], 239 nM. For the same compound, the IC50 turned out to be 14000 nM in the data set with Trypanosoma cruzi; 1020 nM in data set [4]; 1010 nM in data set [5]; 5380 nM in the data set on Leishmania infantum; 18800 nM in data set [6].
Take `CSc1ccccc1C(=O)Nc1nc(-c2ccccn2)cs1`: the inhibition at 5 µM with Plasmodium falciparum [1] came out at 98%. In addition, the EC50 with Plasmodium falciparum [2] amounted to 206 nM; with Plasmodium falciparum [3], 562 nM. The IC50 with Trypanosoma cruzi worked out at 250 nM; in data set [4] it was 931 nM; in data set [5] it was 272 nM; in the data set on Leishmania infantum, 336 nM; in data set [6] it was 2780 nM.
In the data set on Plasmodium falciparum [1], `OC(CNCc1ccccc1)Cn1c2ccccc2c2ccccc21` (stereo not drawn) came in with an inhibition at 5 µM of 95%. Further, the values for the half-maximal effective concentration (EC50) in the data set with Plasmodium falciparum [2] and in the data set with Plasmodium falciparum [3] were 1080 nM and 860 nM, respectively. Moreover, the IC50 in the data set on Trypanosoma cruzi amounted to 4320 nM; in data set [4], 851 nM; in data set [5], 252 nM; with Leishmania infantum, 4000 nM; in data set [6], 16100 nM.
